We go through 32 compounds from ChEMBL document CHEMBL5579834 (Eur J Med Chem, 2024).

One may read the CC50 as the concentration giving 50% cytotoxicity. Broadly, the half-life is how long it takes for the measured level to halve. Low readings indicate rapid decline, high ones slow decline.

Data set [1] can be described thus: Cytotoxicity against HEK293T cells assessed as reduction in cell viability measured after 48 hrs by MTT assay. It counts as toxicity, cell-based, HEK-293T. Particulars: human. (Tetrazolium dyes change colour on reduction, which living cells bring about.)
Data set [2] can be described thus: Drug uptake in human skin fibroblast lysosomes assessed as fold change in corrected total cell fluorescence at 50 uM measured after 2 hrs by LysoTracker Red DND-99 dye based laser scanning confocal microscopy relative to control. It counts as ADME, subcellular, Lysosome.
Data set [3] in a line: Half-life in rat whole blood at 500 ng/ml by LC-MS/MS analysis. It counts as ADME, tissue-based.

Where only a bound is given, the exact number is not on record here.

Take `C[C@@H]1[C@H]2C[C@@H](C[C@H]1OC(=O)CCCN1CCOCC1)C2(C)C`: the CC50 at 48 h in data set [1] was 116 µM.

As for `CN1CCN(CCC(=O)O[C@H]2C(C)(C)[C@H]3CC[C@]2(C)C3)CC1`, the CC50 at 48 h in data set [1] came out at 454 µM. Further, the “fold change (FC)” value in data set [2] was 0.33.

On to `C[C@@H]1[C@H]2C[C@@H](C[C@H]1OC(=O)CCCN1CCN(C)CC1)C2(C)C`, for which the half-maximal cytotoxic concentration (CC50) at 48 h in data set [1] is 164 µM.

Turning to `CC1(C)[C@H]2CC[C@](C)(C2)[C@H]1OC(=O)CCN1CCOCC1`, the CC50 at 48 h in data set [1] turned out to be 318 µM.

For `CC1(C)[C@H]2CC[C@](C)(C2)[C@H]1OC(=O)CN1CCOCC1`, the CC50 at 48 h in data set [1] came to 291 µM.

On to `CC1(C)[C@H]2CC[C@](C)(C2)[C@H]1OC(=O)CN1CCCCC1`, for which the CC50 at 48 h in data set [1] amounted to 229 µM. Moreover, the “fold change (FC)” value in data set [2] came to 0.6.

With `C[C@@H]1[C@H]2C[C@@H](C[C@H]1OC(=O)CN1CCN(C)CC1)C2(C)C`, in data set [1], the CC50 at 48 h is 628 µM.

`CC1(C)[C@H]2CC[C@](C)(C2)[C@H]1OC(=O)CCCN1CCN(c2ccccc2)CC1`: the CC50 at 48 h in data set [1] was determined as 11 µM.

`CN1CCN(CC(=O)O[C@H]2C(C)(C)[C@H]3CC[C@]2(C)C3)CC1`: the CC50 at 48 h in data set [1] turned out to be 645 µM.

Take `C[C@@H]1[C@H]2C[C@@H](C[C@H]1OC(=O)CCN1CCN(c3ccccc3)CC1)C2(C)C`: the CC50 at 48 h in data set [1] came to 128 µM.

For `C[C@@H]1[C@H]2C[C@@H](C[C@H]1OC(=O)CCN1CCOCC1)C2(C)C`, in data set [1], the CC50 at 48 h worked out at 281 µM. Also, in data set [2], the “fold change (FC)” value worked out at 0.57.

For `CC1(C)[C@H]2CC[C@](C)(C2)[C@H]1OC(=O)CCCN1CCOCC1`, the CC50 at 48 h in data set [1] stood at 261 µM. Moreover, the “fold change (FC)” value in data set [2] worked out at 0.56.

With `C[C@@H]1[C@H]2C[C@@H](C[C@H]1OC(=O)CN1CCN(c3ccccc3)CC1)C2(C)C`, the CC50 at 48 h in data set [1] was 59 µM.

For `CC1CCN(CCCC(=O)O[C@H]2C(C)(C)[C@H]3CC[C@]2(C)C3)CC1`, the CC50 at 48 h in data set [1] amounted to 130 µM.

Consider `C[C@@H]1[C@H]2C[C@@H](C[C@H]1OC(=O)CCN1CCCCC1)C2(C)C`, for which, in data set [1], the CC50 at 48 h was 334 µM. Further, the “fold change (FC)” value in data set [2] is listed as 0.37.

For `CC1CCN(CCC(=O)O[C@H]2C(C)(C)[C@H]3CC[C@]2(C)C3)CC1`, in data set [1], the CC50 at 48 h turned out to be 188 µM.

Turning to `C[C@@H]1[C@H]2C[C@@H](C[C@H]1OC(=O)CCN1CCN(C)CC1)C2(C)C`, the cytotoxic concentration (CC50) at 48 h in data set [1] was found to be 318 µM.

For the compound `C[C@@H]1[C@H]2C[C@@H](C[C@H]1OC(=O)CCCN1CCCCC1)C2(C)C`, the CC50 at 48 h in data set [1] was determined as 123 µM.

For `CC1(C)[C@H]2CC[C@](C)(C2)[C@H]1OC(=O)CCCN1CCCCC1`, in data set [1], the CC50 at 48 h was 458 µM.

As for `CC1CCN(CC(=O)O[C@H]2C(C)(C)[C@H]3CC[C@]2(C)C3)CC1`, in data set [1], the CC50 at 48 h was found to be 241 µM.

Turning to `CCN1CCN(CCC(=O)O[C@H]2C(C)(C)[C@H]3CC[C@]2(C)C3)CC1`, the 50% cytotoxic concentration (CC50) at 48 h in data set [1] is 356 µM.

As to `CCN1CCN(CC(=O)O[C@H]2C(C)(C)[C@H]3CC[C@]2(C)C3)CC1`, the CC50 at 48 h in data set [1] was 907 µM.

In the case of `CC1(C)[C@@H]2CC[C@@]1(C)[C@@H](OC(=O)CCN1CCCCC1)C2`, in data set [3], the half-life at 500 ng/ml turned out to be 20 min.

As to `CN1CCN(CCCC(=O)O[C@H]2C(C)(C)[C@H]3CC[C@]2(C)C3)CC1`, the CC50 at 48 h in data set [1] was > 775 µM.

As for `CC1(C)[C@H]2CC[C@](C)(C2)[C@H]1OC(=O)CCN1CCCCC1`, the half-maximal cytotoxic concentration (CC50) at 48 h in data set [1] turned out to be 351 µM. In addition, the “fold change (FC)” value in data set [2] is on record as 0.3.

In the case of `CCN1CCN(CCCC(=O)O[C@H]2C(C)(C)[C@H]3CC[C@]2(C)C3)CC1`, the CC50 at 48 h in data set [1] was found to be 404 µM.

As to `CC1(C)[C@H]2CC[C@](C)(C2)[C@H]1OC(=O)CCN1CCN(c2ccccc2)CC1`, the CC50 at 48 h in data set [1] was 21 µM.

As for `C[C@@H]1[C@H]2C[C@@H](C[C@H]1OC(=O)CN1CCOCC1)C2(C)C`, the 50% cytotoxic concentration (CC50) at 48 h in data set [1] came out at 199 µM. Also, the “fold change (FC)” value in data set [2] turned out to be 0.56.

Take `C[C@@H]1[C@H]2C[C@@H](C[C@H]1OC(=O)CN1CCCCC1)C2(C)C`: in data set [1], the CC50 at 48 h worked out at 314 µM. In addition, in data set [2], the “fold change (FC)” value is recorded as 0.46.

Regarding `CC1(C)[C@H]2CC[C@](C)(C2)[C@H]1OC(=O)CN1CCN(c2ccccc2)CC1`, in data set [1], the CC50 at 48 h was 101 µM.

For `CN(C)CCOc1ccc(/C(=C(/CCCl)c2ccccc2)c2ccccc2)cc1` [TOREMIFENE], the CC50 at 48 h in data set [1] came out at 17 µM.

In the case of `C[C@@H]1[C@H]2C[C@@H](C[C@H]1OC(=O)CCCN1CCN(c3ccccc3)CC1)C2(C)C`, in data set [1], the CC50 at 48 h was 67 µM.
